Laboratory results reported in patent US20110269790A1, “NOVEL THIENOPYRIDINES AS PHARMACOLOGICALLY ACTIVE AGENTS” (priority 2009, published 2011).

Legend:
[1] = tested on: Wistar rats; assay: Dextran induced rat paw edema model; assay type: in vivo; conditions: 3 hrs after Dextran
Description: Anti-inflammatory activity of test compounds was evaluated in Wistar rats employing method of Winter et al (1963) and Diwan et al (1989). Over night fasted rats were grouped into different test groups and standard group consisting 6 animals in each group. Test compounds were administered orally one hour before dextran challenge as gum acacia suspension. Animals in the standard group received Indomethacin at dose of 10 mg/kg. After one hour dextran was injected into the right hind paw by sub plantar route. A zero hour paw volume was measured for the rats using digital plethysmometer (Ugo Basile, Italy) before the administration of Dextran for all groups. Paw volumes were again measured 3 hrs after the challenge of Dextran. The percent inhibition of paw volume for each rat in treated groups was calculated by comparing with mean paw volume of control group and expressed as mean (±SE) percent inhibition of paw volume for each test group.

[2] = tested on: TNF-α; assay: In vitro TNF-α estimation in LPS treated RAW 264.7 macrophages (ELISA); assay type: cell-based, mouse
Description: (§1) Cell Culture and Treatment: The RAW 264.7 (mouse macrophages, national center for cellular sciences) cells were grown in plastic T-25 culture flask in Dulbeccos modified eagles medium (DMEM) without phenol red supplemented with 10% heat activated serum (heating at 57° C. for 30 minutes, 100 μg per ml penicillin, 200 μg per ml streptomycin, 2 mmol L-glutamine, 1% antibiotic/Anti mycotic solution (GIBCO/SRL) under 5% co2 with 85% relative humidity at 37° C. After 2-3 days cells were removed from the culture flask by tripsinizing the cells with Trypsin EDTA solution. Cell count and viability was performed using a standard Trypan blue dye exclusion method. The cell concentration was adjusted to 1×10^5 cells per ml in each well with the same media in the 12 well plates. After 24 hrs incubation the media was removed from each well replaced with a fresh one containing different concentrations (50 μg, 25 μg, 12.5 μg) of the synthetic compounds BN-4, BN-14 and BN-16 along with 10 μg/ml LPS, where as normal control (PBS) and positive controls (Dexa, Roli) LPS (10 μg/ml), were added. 200 μl of media from each well was collected at 6 hrs for the estimation of TNF-α and after 24 hrs for Nitric Oxide respectively. The adherent cells, which remained after removing the media was subjected to […] for determining the cytotoxicity of compounds at selected concentrations
Measurement of TNF-α: TNF-α was assayed by ELISA kit supplied by R&D systems. A volume of 100 μl of 0.8 μg per ml, goat anti mouse TNF-a in PBS was coated and incubated overnight at room temperature. Plates were washed 3 times with PBS/0.05% Tween 20 and blocked by the addition of 1% BSA in PBS at room temperature for 2 hrs. Plates were washed 3 times again with same buffer and 100 μl of samples and standards (Recombinant mouse TNF-α with 1% BSA in PBS) of different concentrations were added in triplicates and incubated for 2 hrs at RT. After washing 100 μl of goat anti mouse TNF-α conjugated with HRP were added and incubated for 2 hrs at RT. Then 100 μl of TMB substrate ([…] with H2O2) was added to all wells. After 20 min stop solution was added to all the wells, and measured the optical density at 450 nm. TNF-α concentration was calculated from standard curve by regression analysis.

[3] = tested on: IL-1β; assay: IL-1β assay in murine macrophage cell line; assay type: cell-based, mouse; conditions: 50, 25, 12.5 μg/ml with LPS
Description: as §1
To determine the mechanism of action all test compounds were screened for invitro anti-inflammatory methods, which include TNF-a and IL-1b and Nitric Oxide. […] TNF-a is a pleiotropic cytokine, which plays a critical role in both acute and chronic inflammation (Holtzmann et al., 2002). Several inflammagens have the ability of inducing the synthesis of TNF-a. Formation of a number of small molecular mediators of inflammation is linked with TNF-a and contributes to the range of mediators that critically control inflammation. TNF-a facilitates inflammatory cell infiltration by promoting the adhesion of neutrophils and lymphocytes to endothelial cells (Dinarello, 1997).

[4] = tested on: rats; assay: Collagen induced arthritis; assay type: in vivo, rat; conditions: collagen induced study; BN compounds 100 mg/kg, Indomethacin 2.5 mg/kg
Source text: Group I—Normal Control; Group II—Arthritic control; Group III—Arthritic rats administered with Synthetic compound BN-4; Group IV—arthritic rats administered with compound BN-14; Group V—arthritic rats administered with BN-16; Group VI—arthritic rats administered with standard drug indomethacin. […] The test and indomethacin doses continued up to 21 days in FCA induced model and 24 days in collagen induced model. […] Before sacrificing the animals, blood was collected and used for estimation of total leukocyte count, TNF-α and IL-1β. […] In collagen induced study the total WBC count was analyzed by using cell counter and count as follows; […]

[5] = tested on: Wistar rats; assay: Freund's complete adjuvant (FCA) induced arthritis; assay type: in vivo, rat; conditions: 17th day and 21st day, 100 mg/kg, vs arthritic control
[6] = tested on: rats; assay: Ulcerogenic assay; assay type: in vivo, rat; conditions: BN compounds 200 mg/kg oral, Indomethacin 30 mg/kg; for Ulcer Score: arbitrary scale 0 (no lesions) to 4 (mucosa full of lesions); for Ulcer Incidence: fasted rats, six hours after dosing, n=4
Description: The method of Cashin et al., (1979) was employed. Food was withheld from the animals for 18 hours prior to the experiment. The fasted animals (n=4) received the compounds BN-4, BN-14 and BN-16 as gum acacia suspension by oral route at the dose of 100,200 mg/kg. Indomethacin control animals received the drug at the dose of 30 mg/kg. Six hours later, rats were killed and the stomachs removed and open along the lesser curvature. The opened stomach was washed with normal saline and observed for ulceration. Lesions on the mucosal surface was scored according to arbitrary scale: 0 No lesion; 0.5=hyperemia; 1=one or two lesions; 2=severe lesions; 3=very severe lesions; 4=Mucosal full of lesions (Bani et al., 2000). […] But indomethacin group animals show severe ulceration in stomach portion. More importantly, gastric ulcer, which is a common side effect of NSAIDS, was totally absent in stomach of compound treated rat group. Since enhanced leukotrine production plays a role in development of gastrointestinal damage from cyclooxygenase inhibition by NSAIDS (Rainsford et al., 1993; Gyomber et al., 1996) and all the compounds have shown potent inhibitory action on 5-LOX inhibition (Arachidonic induced paw edema model) along with cox inhibition (Carrageenan induced paw edema model), the gastric ulcer sparing effect of compounds may be partly due to their effect on 5-LOX inhibition.

[7] = 50 μg/ml, 25 μg/ml, 12.5 μg/ml with LPS 10 μg/ml, 6 hrs

Question: What does the source list for `Cc1sc2nc3c(c(N)c2c1C)CCCCC3` [BN-4, 2,3-dimethyl-6,7,8,9-tetrahydro-5H-cyclohepta[b]thieno[3,2-e]pyridin-4-amine]?
Answer: % Inhibition ([1]; 50 mg/kg oral): 12.17 ± 1.14%; Percentage Swelling (50 mg/kg) ([1]; 50 mg/kg oral): 69.96 ± 4.06 %; % Inhibition ([1]; 100 mg/kg oral): 13.57 ± 1.71%; Percentage Swelling (100 mg/kg) ([1]; 100 mg/kg oral): 50.01 ± 1.09 %; % Inhibition ([1]; 200 mg/kg oral): 32.71 ± 4.45%; Percentage Swelling (200 mg/kg) ([1]; 200 mg/kg oral): 38.52 ± 2.60 %; Inhibition of TNF-a production ([2]; 12.5 μg/ml with LPS): not shown inhibition; Inhibition of TNF-a production [2, 7]: good inhibition; Production of IL-1β from murine macrophage cell line [3]: inhibitory effect; Total WBC count [4]: 13.57±0.63; Arthritic scoring [5]: significantly reduced

Question: `Nc1c2c(nc3sc4c(c13)CCC4)CCCC2` [BN-14, 2,3,6,7,8,9-Hexahydro-1H-cyclopenta[4,5]thieno[2,3-b]quinolin-10-amine] was tested. Which “% Inhibition” value ([1]; 50 mg/kg oral) did it give?
Answer: 21.29 ± 4.69%

Question: And the “Percentage Swelling (50 mg/kg)” value ([1]; 50 mg/kg oral)?
Answer: 65.36 ± 2.91a %

Question: What about the “% Inhibition” value ([1]; 100 mg/kg oral) of the same molecule?
Answer: 24.83 ± 0.47%

Question: What about the “Percentage Swelling (100 mg/kg)” value ([1]; 100 mg/kg oral) of the same molecule?
Answer: 41.63 ± 2.78 %

Question: And the “% Inhibition” value ([1]; 200 mg/kg oral)?
Answer: 38.54 ± 4.26%

Question: What about the “Percentage Swelling (200 mg/kg)” value ([1]; 200 mg/kg oral) of the same molecule?
Answer: 36.09 ± 2.79 %

Question: What about the “Ulcer Score” value [6] of the same molecule?
Answer: 0.37 ± 0.10

Question: What about the “Ulcer Incidence” value [6] of the same molecule?
Answer: ¼

Question: And the “Inhibition of TNF-a production” value [2, 7]?
Answer: good inhibition

Question: And the “Production of IL-1β from murine macrophage cell line” value [3]?
Answer: inhibitory effect

Question: And the “Total WBC count” value [4]?
Answer: 14.88±2.64

Question: And the Arthritic scoring [5]?
Answer: significantly reduced

Question: `Nc1c2c(nc3sc4c(c13)CCC4)CCCCC2` [BN-16, 1,2,3,6,7,8,9,10-Octahydrocyclohepta[b]cyclopenta[4,5]thieno[3,2-e]pyridine-11-amine] was tested. Which “% Inhibition” value ([1]; 50 mg/kg oral) did it give?
Answer: 18.30 ± 3.25%

Question: What about the “Percentage Swelling (50 mg/kg)” value ([1]; 50 mg/kg oral) of the same molecule?
Answer: 61.80 ± 1.18a %

Question: And the “% Inhibition” value ([1]; 100 mg/kg oral)?
Answer: 30.90 ± 4.32%

Question: What about the “Percentage Swelling (100 mg/kg)” value ([1]; 100 mg/kg oral) of the same molecule?
Answer: 40.09 ± 4.24 %

Question: And the “% Inhibition” value ([1]; 200 mg/kg oral)?
Answer: 41.00 ± 3.86%

Question: What about the “Percentage Swelling (200 mg/kg)” value ([1]; 200 mg/kg oral) of the same molecule?
Answer: 31.85 ± 2.09 %

Question: What about the “Ulcer Score” value [6] of the same molecule?
Answer: 0.25 ± 0.12

Question: What about the “Ulcer Incidence” value [6] of the same molecule?
Answer: 0/4

Question: And the “Inhibition of TNF-a production” value [2, 7]?
Answer: good inhibition

Question: And the “Production of IL-1β from murine macrophage cell line” value [3]?
Answer: inhibitory effect

Question: And the “Total WBC count” value [4]?
Answer: 15.70±1.28

Question: What about the Arthritic scoring [5] of the same molecule?
Answer: significantly reduced

Question: With `COc1ccc2c(c1)c(CC(=O)O)c(C)n2C(=O)c1ccc(Cl)cc1` [Indomethacin, reference compound] as the molecule, how does the “Ulcer Score” value [6] read?
Answer: 2.25 ± 0.41

Question: What about the “Ulcer Incidence” value [6] of the same molecule?
Answer: 4/4

Question: And the “Total WBC count” value [4]?
Answer: 19.70±2.23
